Reference: patent US9512114B2, “Substituted aminopyrimidine compounds and methods of use” (Calitor Sciences, LLC, priority 2013, dated 2016)

Legend:
[1] = Compound stability in human liver microsomes; format: in vitro ADME; conditions: pH 7.4; for CLint scaled at 5 μM: liver microsomes, in vivo CLint extrapolated from human liver microsome incubation; for half-life at 5 μM: human liver microsomes 0.5 mg protein/mL, compound 5 μM, NADPH 1.0 mM, 37° C., read-out: Human T1/2
Procedure: (§1) The LC/MS/MS system used in the analysis consists of an Agilent 1200 Series vacuum degasser, binary pump, well-plate autosampler, thermostatted column compartment, the Agilent G6430 Triple Quadrupole Mass Spectrometer with an electrosprayionization (ESI) source. Quantitative analysis was carried out using MRM mode. The parameters for MRM transitions are in the Table A.
(§2) An Agilent XDB-C18, 2.1×30 mm, […] column was used for the analysis. 5 μL of the samples were injected. Analysis condition: The mobile phase was 0.1% formic acid in water (A) and 0.1% formic acid in methanol (B). The flow rate was 0.4 mL/min. And the gradient of Mobile phase was in the Table B.
(§3) Alternatively, an Agilent 6330 series LC/MS/MS spectrometer equipped with G1312A binary pumps, a G1367A autosampler and a G1314C UV detector were used in the analysis. An ESI source was used on the LC/MS/MS spectrometer. The analysis was done in positive ion mode as appropriate and the MRM transition for each analyte was optimized using standard solution. A Capcell MP-C18 100×4.6 mm I.D., […] column (Phenomenex, Torrance, Calif., USA) was used during the analysis. The mobile phase was 5 mM ammonia acetate, 0.1% MeOH in water (A): 5 mM ammonia acetate, 0.1% MeOH in acetonitrile (B) (70:30, v/v). The flow rate was 0.6 mL/min. Column was maintained at ambient temperature. 20 μL of the samples were injected.
(§4) Human or rat liver microsomes incubations were conducted in duplicate in polypropylene tubes. The typical incubation mixtures consisted of human or rat liver microsomes (0.5 mg protein/mL), compounds of interest (5 μM) and NADPH (1.0 mM) in a total volume of 200 μL potassium phosphate buffer (PBS, 100 mM, pH 7.4). Compounds were dissolved in DMSO and diluted with PBS such that the final concentration of DMSO was 0.05%. The enzymatic reactions were commenced with the addition of protein after a 3-min preincubation and incubated in a water bath open to the air at 37° C. Reactions were terminated at various time points (0, 5, 10, 15, 30, 60 min) by adding equal volume of ice-cold acetonitrile. The samples were stored at −80° C. until LC/MS/MS assays.
(§5) The concentrations of compounds in the incubation mixtures of human or rat liver microsomes were determined by a LC/MS/MS method. The ranges of the linearity in the concentration range were determined for each tested compounds.
(§6) A parallel incubation was performed using denatured microsomes as the negative control, and reactions were terminated at various time points (0, 15, 60 min) after incubation at 37° C.
(§7) Dextromethorphan (70 μM) was selected as the positive control, and reactions were terminated at various time points (0, 5, 10, 15, 30, 60 min) after incubation at 37° C. Both positive and negative control samples were included in each assay to ensure the integrity of the microsomal incubation system.
(§8) The concentrations of compounds in human or rat liver microsome incubations were plotted as a percentage of the relevant zero time point control for each reaction. The in vivo CLint were extrapolated (ref.: Naritomi, Y.; Terashita, S.; Kimura, S.; Suzuki, A.; Kagayama, A.; and Sugiyama, Y.; Prediction of human hepatic clearance from in vivo animal experiments and in vitro metabolic studies with liver microsomes from animals and humans. Drug Metab. Dispos., 2001, 29: 1316-1324).

[2] = Compound stability in rat liver microsomes; format: in vitro ADME; conditions: pH 7.4; for CLint scaled at 5 μM: liver microsomes, in vivo CLint extrapolated from rat liver microsome incubation; for half-life at 5 μM: rat liver microsomes 0.5 mg protein/mL, compound 5 μM, NADPH 1.0 mM, 37° C., read-out: Rat T1/2
Procedure: as §1, §2, §3, §4, §5, §6, §7, §8

[3] = Pharmacokinetic profiles in rats; format: in vivo, rat; conditions: for Cl/F / AUC(0-t) / half-life / Vd: iv dosing 1 mg/kg; for F: oral vs iv (iv 1 mg/kg; p.o. generally 5 or 10 mg/kg); for AUC(0-t) / half-life / Vd: rat, plasma; for Vd: read-out: Vss
Procedure: The compounds disclosed herein are assessed in pharmacokinetic studies in mice, rats, dogs or monkeys. The compounds are administered as a water solution, 2% HPMC+1% TWEEN®80 in water solution, 5% DMSO+5% solutol in saline, 4% MC suspension or capsule. For the intravenous administration, the animals are generally given at 1 or 2 mg/kg dose. For the oral (p.o.) dosing, mice and rats are generally given 5 or 10 mg/kg dose, and dogs and monkeys are generally given 10 mg/kg dose. The blood samples (0.3 mL) are drawn at 0.25, 0.5, 1.0, 2.0, 3.0, 4.0, 6.0, 8.0, 12 and 24 h time points or 0.083, 0.25, 0.5, 1.0, 2.0, 4.0, 6.0, 8.0 and 24 h time points and centrifuged at 3,000 or 4000 rpm for 2 to 10 min. The plasma solutions are collected, stored at −20° C. or −70° C. until analyzed by LC/MS/MS as described above.

PI3K (p110α/p85α) (h) = PI3K (p110α/p85α) (h) (Homo sapiens (Human), UniProt P42336); assay: PI3K (p110α/p85α) (h) non-radioactive HTRF kinase assay; format: biochemical; conditions: performed at Millipore UK Ltd
Chain of PI3K (p110α/p85α) (h) (P42336 whole entry): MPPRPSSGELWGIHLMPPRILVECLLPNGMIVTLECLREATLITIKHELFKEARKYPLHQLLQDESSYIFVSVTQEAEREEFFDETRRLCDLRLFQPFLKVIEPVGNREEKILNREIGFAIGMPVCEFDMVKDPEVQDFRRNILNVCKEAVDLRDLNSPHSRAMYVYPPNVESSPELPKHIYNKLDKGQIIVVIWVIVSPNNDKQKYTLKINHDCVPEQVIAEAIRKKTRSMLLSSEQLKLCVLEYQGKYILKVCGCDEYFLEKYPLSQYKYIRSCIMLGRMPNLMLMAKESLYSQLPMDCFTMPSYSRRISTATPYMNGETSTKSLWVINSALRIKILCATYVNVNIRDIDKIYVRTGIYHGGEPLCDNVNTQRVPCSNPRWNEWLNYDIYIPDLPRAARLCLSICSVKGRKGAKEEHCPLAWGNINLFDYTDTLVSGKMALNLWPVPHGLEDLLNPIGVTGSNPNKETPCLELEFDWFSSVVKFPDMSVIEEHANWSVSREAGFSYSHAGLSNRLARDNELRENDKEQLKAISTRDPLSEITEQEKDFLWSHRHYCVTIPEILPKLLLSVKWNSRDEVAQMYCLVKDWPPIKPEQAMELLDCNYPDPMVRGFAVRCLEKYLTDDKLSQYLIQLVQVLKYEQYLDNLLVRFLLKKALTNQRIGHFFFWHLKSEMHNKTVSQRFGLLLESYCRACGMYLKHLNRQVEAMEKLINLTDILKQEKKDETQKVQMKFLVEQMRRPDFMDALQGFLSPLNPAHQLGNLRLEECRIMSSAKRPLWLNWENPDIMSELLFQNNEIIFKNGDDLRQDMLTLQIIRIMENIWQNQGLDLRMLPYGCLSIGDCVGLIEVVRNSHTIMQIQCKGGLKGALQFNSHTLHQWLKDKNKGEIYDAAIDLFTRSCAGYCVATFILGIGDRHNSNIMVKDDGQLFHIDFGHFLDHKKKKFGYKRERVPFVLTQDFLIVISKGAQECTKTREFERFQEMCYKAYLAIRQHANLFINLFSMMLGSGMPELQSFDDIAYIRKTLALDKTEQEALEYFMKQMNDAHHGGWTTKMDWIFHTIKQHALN
Chain of PI3K (p110α/p85α) (h) (P27986 whole entry partner): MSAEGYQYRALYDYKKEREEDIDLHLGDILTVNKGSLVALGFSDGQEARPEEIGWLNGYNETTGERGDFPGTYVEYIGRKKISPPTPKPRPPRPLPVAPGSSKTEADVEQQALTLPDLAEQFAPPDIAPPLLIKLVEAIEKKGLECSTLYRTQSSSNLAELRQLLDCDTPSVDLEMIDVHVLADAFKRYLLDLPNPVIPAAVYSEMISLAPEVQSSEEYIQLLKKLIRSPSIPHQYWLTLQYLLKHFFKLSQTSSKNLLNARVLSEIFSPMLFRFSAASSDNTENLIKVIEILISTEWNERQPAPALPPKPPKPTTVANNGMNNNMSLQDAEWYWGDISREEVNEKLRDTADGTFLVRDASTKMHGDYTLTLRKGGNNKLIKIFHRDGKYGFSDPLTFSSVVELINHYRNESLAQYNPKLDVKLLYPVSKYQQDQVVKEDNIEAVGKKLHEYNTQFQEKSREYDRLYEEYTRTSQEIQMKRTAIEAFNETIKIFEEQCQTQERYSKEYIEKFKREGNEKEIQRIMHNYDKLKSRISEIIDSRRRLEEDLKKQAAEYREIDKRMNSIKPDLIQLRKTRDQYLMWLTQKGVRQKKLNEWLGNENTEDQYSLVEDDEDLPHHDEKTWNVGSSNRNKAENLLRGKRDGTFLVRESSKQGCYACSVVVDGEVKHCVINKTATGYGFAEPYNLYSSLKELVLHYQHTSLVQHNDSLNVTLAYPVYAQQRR
Procedure: (§9) The above assay procedure can be used to determine the IC50 for inhibition and/or the inhibition constant, Ki.
PI3K (p110α/p85α) (h) [Non-Radioactive Assay]
(§10) PI3K (p110α/p85α) (h) is incubated in assay buffer containing 10 μM phosphatidylinositol 4,5-bisphosphate and MgATP (concentration as required). The reaction is initiated by the addition of the ATP solution. After incubation for 30 minutes at room temperature, the reaction is stopped by the addition of stop solution containing EDTA and biotinylated phosphatidylinositol-3,4,5-trisphosphate. Finally, detection buffer is added, which contains europium-labelled anti-GST monoclonal antibody, GST-tagged GRP1 PH domain and streptavidin allophycocyanin. The plate is then read in timeresolved fluorescence mode and the homogenous time-resolved fluorescence (HTRF) signal is determined according to the formula HTRF=10000×(Em665 nm/Em620 nm).
(§11) The kinase assays described herein were performed at Millipore UK Ltd, Dundee Technology Park, Dundee DD2 1SW, UK.

PI3K (p110β/p85α) (h) = PI3K (p110β/p85α) (h) (Homo sapiens (Human), UniProt P42338); assay: PI3K (p110β/p85α) (h) non-radioactive HTRF kinase assay; format: biochemical; conditions: performed at Millipore UK Ltd
Chain of PI3K (p110β/p85α) (h) (P42338 whole entry): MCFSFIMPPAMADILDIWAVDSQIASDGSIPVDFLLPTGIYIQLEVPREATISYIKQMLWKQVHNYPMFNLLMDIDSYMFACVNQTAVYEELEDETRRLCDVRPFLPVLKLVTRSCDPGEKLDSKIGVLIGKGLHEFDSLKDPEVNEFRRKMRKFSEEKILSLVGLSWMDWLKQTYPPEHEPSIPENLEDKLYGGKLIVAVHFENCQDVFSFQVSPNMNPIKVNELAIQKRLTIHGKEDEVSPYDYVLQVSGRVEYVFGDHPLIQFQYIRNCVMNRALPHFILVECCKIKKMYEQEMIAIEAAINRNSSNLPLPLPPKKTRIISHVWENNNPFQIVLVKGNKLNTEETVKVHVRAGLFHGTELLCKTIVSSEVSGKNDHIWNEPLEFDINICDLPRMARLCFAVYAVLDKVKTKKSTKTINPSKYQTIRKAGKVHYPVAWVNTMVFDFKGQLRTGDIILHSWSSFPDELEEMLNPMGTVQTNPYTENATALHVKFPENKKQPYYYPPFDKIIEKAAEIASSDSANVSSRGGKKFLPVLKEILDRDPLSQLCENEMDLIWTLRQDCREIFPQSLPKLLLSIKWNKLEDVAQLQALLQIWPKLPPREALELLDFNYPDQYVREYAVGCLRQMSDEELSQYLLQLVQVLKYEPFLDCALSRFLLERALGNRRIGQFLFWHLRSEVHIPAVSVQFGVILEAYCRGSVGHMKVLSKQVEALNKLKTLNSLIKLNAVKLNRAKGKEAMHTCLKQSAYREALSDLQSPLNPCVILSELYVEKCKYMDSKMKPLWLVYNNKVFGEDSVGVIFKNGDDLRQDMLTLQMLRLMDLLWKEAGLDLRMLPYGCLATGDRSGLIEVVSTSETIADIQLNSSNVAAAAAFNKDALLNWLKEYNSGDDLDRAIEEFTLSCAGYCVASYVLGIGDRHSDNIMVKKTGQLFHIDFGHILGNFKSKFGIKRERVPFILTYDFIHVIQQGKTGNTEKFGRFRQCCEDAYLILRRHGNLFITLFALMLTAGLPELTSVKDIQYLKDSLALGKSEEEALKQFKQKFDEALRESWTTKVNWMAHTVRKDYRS
Chain of PI3K (p110β/p85α) (h) (P27986 whole entry partner): as the sequence (P27986 whole entry partner) above
Procedure: as §9
PI3K (p110β/p85α) (h) [Non-Radioactive Assay]
as §10, with “([…])” for “(p110α/p85α)”, “phosphatidylinositol-4, 5-bisphosphate” for “phosphatidylinositol 4,5-bisphosphate”, “MgATP mix.” for “ATP solution.”, “streptavidin-allophycocyanin.” for “streptavidin allophycocyanin.”
as §11

PI3K (p120γ) (h) = PI3K (p120γ) (h) (Homo sapiens (Human), UniProt P48736); assay: PI3K (p120γ) (h) non-radioactive HTRF kinase assay; format: biochemical; conditions: performed at Millipore UK Ltd
Chain of PI3K (p120γ) (h) (P48736 whole entry): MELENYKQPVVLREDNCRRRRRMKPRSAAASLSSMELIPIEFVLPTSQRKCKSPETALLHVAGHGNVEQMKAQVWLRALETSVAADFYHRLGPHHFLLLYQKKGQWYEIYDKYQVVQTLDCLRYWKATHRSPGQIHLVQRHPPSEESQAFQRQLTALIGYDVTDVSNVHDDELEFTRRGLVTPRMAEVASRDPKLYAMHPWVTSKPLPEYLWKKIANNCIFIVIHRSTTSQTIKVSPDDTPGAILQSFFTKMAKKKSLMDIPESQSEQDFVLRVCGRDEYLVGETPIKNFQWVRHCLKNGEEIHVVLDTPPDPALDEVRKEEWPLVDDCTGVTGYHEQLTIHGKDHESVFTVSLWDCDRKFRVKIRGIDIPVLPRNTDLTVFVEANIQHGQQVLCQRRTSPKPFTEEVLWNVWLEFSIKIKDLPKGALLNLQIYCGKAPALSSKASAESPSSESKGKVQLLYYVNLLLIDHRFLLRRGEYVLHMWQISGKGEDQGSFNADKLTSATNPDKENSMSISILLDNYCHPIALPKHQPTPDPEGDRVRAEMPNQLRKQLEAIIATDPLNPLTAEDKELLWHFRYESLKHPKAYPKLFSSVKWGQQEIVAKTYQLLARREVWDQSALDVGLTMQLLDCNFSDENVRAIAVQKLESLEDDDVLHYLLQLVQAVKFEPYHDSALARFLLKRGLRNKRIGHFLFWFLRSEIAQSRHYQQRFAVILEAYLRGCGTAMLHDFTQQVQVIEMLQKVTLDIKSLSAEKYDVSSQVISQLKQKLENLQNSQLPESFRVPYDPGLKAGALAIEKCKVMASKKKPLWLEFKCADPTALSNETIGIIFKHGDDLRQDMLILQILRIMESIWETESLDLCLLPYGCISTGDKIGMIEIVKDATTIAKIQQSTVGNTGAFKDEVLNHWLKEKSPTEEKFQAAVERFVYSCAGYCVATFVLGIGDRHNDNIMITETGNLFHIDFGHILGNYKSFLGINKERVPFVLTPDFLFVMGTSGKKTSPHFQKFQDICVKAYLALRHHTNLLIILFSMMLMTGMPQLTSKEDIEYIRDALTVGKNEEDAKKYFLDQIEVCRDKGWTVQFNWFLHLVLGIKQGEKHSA
Procedure: as §9
PI3K (p120γ) (h) [Non-Radioactive Assay]
as §10, with “(p120γ)” for “(p110α/p85α)”, “phosphatidylinositol-4, 5-bisphosphate” for “phosphatidylinositol 4,5-bisphosphate”, “MgATP mix.” for “ATP solution.”, “streptavidin-allophycocyanin.” for “streptavidin allophycocyanin.”
as §11

PI3K (p110δ/p85α) (h) = PI3K (p110δ/p85α) (h) (Homo sapiens (Human), UniProt O00329); assay: PI3K (p110δ/p85α) (h) non-radioactive HTRF kinase assay; format: biochemical; conditions: performed at Millipore UK Ltd
Chain of PI3K (p110δ/p85α) (h) (O00329 whole entry): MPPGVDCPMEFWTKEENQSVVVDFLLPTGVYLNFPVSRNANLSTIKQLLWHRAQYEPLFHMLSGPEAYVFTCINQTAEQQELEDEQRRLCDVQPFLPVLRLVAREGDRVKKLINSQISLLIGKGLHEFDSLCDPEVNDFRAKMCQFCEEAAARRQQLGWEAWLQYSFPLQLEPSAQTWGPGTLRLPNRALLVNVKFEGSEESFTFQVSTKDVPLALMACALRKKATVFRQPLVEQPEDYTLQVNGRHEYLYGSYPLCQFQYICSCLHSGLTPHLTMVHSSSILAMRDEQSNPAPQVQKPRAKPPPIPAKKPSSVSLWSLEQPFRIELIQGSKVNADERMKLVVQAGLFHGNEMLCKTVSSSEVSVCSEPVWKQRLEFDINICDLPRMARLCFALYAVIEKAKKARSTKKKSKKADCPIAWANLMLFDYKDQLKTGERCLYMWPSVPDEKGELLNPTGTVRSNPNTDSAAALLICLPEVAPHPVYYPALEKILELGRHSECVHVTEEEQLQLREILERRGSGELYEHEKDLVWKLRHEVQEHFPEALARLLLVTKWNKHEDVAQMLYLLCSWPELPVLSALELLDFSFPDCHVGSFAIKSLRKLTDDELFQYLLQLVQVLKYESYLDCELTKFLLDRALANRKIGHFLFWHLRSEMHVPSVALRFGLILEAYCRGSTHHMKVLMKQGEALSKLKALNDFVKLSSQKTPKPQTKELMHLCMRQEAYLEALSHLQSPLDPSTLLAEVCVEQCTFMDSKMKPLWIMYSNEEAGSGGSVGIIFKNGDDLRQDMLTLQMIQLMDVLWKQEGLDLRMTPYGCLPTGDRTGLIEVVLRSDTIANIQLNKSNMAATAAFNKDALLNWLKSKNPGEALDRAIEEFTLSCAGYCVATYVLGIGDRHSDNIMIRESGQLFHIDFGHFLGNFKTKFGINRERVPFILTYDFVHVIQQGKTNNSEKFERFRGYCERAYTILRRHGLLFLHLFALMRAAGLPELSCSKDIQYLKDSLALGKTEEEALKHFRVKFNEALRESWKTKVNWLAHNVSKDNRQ
Chain of PI3K (p110δ/p85α) (h) (P27986 whole entry partner): as the sequence (P27986 whole entry partner) above
Procedure: as §9
PI3K (p110δ/p85α) (h) [Non-Radioactive Assay]
as §10, with “(p110δ/p85α)” for “(p110α/p85α)”, “phosphatidylinositol-4, 5-bisphosphate” for “phosphatidylinositol 4,5-bisphosphate”, “MgATP mix.” for “ATP solution.”, “streptavidin-allophycocyanin.” for “streptavidin allophycocyanin.”
as §11

Row | SMILES | CLint scaled at 5 μM [1] [mL/min/kg] | half-life at 5 μM [1] [min] | CLint scaled at 5 μM [2] [mL/min/kg] | half-life at 5 μM [2] [min] | Cl/F [3] [mL/min/kg] | F [3] [%] | AUC(0-t) [3] [ng·h/mL] | half-life [3] [min] | Vd [3] [L/kg] | IC50 (PI3K (p110α/p85α) (h)) [nM] | IC50 (PI3K (p110β/p85α) (h)) [nM] | IC50 (PI3K (p120γ) (h)) [nM] | IC50 (PI3K (p110δ/p85α) (h)) [nM]
1 | Cc1nc(-c2c(N)ncnc2N[C@@H](C)c2cc3cccc(Cl)c3c(=O)n2C2CC2)no1 [Ex. 11, (S)-3-(1-((6-amino-5-(5-methyl-1,2,4-oxadiazol-3-yl)pyrimidin-4-yl)amino)ethyl)-8-chloro-2-cyclopropylisoquinolin-1(2H)-one] | 545 | 3.19 | 317 | 7.83 | – | – | – | – | – | 1480 | – | 375 | 13
2 | C[C@H](Nc1ncnc(N)c1-c1ncn(C)n1)c1cc2cccc(Cl)c2c(=O)n1C1CC1 [Ex. 16, (S)-3-(1-((6-amino-5-(1-methyl-1H-1,2,4-triazol-3-yl)pyrimidin-4-yl)amino)ethyl)-8-chloro-2-cyclopropylisoquinolin-1(2H)-one] | 219 | 7.92 | 173 | 14.3 | 89.3 | 11.44 | 186 | 36.6 | 2.94 | – | – | – | 190
3 | Cc1noc(-c2c(N)ncnc2N[C@@H](C)c2cc3cccc(Cl)c3c(=O)n2C2CC2)n1 [Ex. 24, (S)-3-(1-((6-amino-5-(3-methyl-1,2,4-oxadiazol-5-yl)pyrimidin-4-yl)amino)ethyl)-8-chloro-2-cyclopropylisoquinolin-1(2H)-one] | 114 | 15.3 | 190 | 13.1 | 120 | 12.28 | 139 | 45 | 5.46 | 307 | – | 15 | 3

Results, then the compound that gave them:

Row | CLint scaled at 5 μM [1] [mL/min/kg] | half-life at 5 μM [1] [min] | CLint scaled at 5 μM [2] [mL/min/kg] | half-life at 5 μM [2] [min] | Cl/F [3] [mL/min/kg] | F [3] [%] | AUC(0-t) [3] [ng·h/mL] | half-life [3] [min] | Vd [3] [L/kg] | IC50 (PI3K (p110α/p85α) (h)) [nM] | IC50 (PI3K (p110β/p85α) (h)) [nM] | IC50 (PI3K (p120γ) (h)) [nM] | IC50 (PI3K (p110δ/p85α) (h)) [nM] | SMILES
4 | 29.2 | 59.6 | 108 | 23.1 | 52.2 | 106.3 | 320 | 31.8 | 1.87 | > 3000 | 259 | 388 | – | CC[C@H](Nc1ncnc(N)c1-c1nnc(C)o1)c1cc2cccc(Cl)c2c(=O)n1-c1ccccc1 [Ex. 5, (S)-3-(1-((6-amino-5-(5-methyl-1,3,4-oxadiazol-2-yl)pyrimidin-4-yl)amino)propyl)-8-chloro-2-phenylisoquinolin-1(2H)-one]
5 | 226 | 7.7 | 330 | 7.53 | 51.7 | 38.15 | 323 | 46.5 | 1.66 | – | – | – | 32 | CC[C@H](Nc1ncnc(N)c1-c1noc(C)n1)c1cc2cccc(F)c2c(=O)n1-c1ccccc1 [Ex. 18, (S)-3-(1-((6-amino-5-(5-methyl-1,2,4-oxadiazol-3-yl)pyrimidin-4-yl)amino)propyl)-8-fluoro-2-phenylisoquinolin-1(2H)-one]
6 | 138 | 12.6 | 259 | 9.58 | 99.8 | 16.23 | 167 | 79.2 | 6.07 | – | – | – | 3 | CCc1noc(-c2c(N)ncnc2N[C@@H](CC)c2cc3cccc(Cl)c3c(=O)n2C2CC2)n1 [Ex. 22, (S)-3-(1-((6-amino-5-(3-ethyl-1,2,4-oxadiazol-5-yl)pyrimidin-4-yl)amino)propyl)-8-chloro-2-cyclopropylisoquinolin-1(2H)-one]
7 | 15.5 | 112 | 33.3 | 74.5 | – | – | – | – | – | > 3000 | > 3000 | 237 | 17 | Cc1nnc(-c2c(N)ncnc2N[C@@H](C)c2cc3cccc(-c4cnn(C)c4)c3c(=O)n2-c2ccccc2)o1 [Ex. 27, (S)-3-(1-((6-amino-5-(5-methyl-1,3,4-oxadiazol-2-yl)pyrimidin-4-yl)amino)ethyl)-8-(1-methyl-1H-pyrazol-4-yl)-2-phenylisoquinolin-1(2H)-one]
